{"source": "ChEMBL document CHEMBL6103552", "about": "“Identification of peptide-based hepatitis B virus capsid inhibitors based on the viral core protein” (Bioorg Med Chem Lett, 2025)", "target": "Core antigen (Hepatitis B virus) (UniProt Q03732)", "sequence (Q03732 as listed by the source)": "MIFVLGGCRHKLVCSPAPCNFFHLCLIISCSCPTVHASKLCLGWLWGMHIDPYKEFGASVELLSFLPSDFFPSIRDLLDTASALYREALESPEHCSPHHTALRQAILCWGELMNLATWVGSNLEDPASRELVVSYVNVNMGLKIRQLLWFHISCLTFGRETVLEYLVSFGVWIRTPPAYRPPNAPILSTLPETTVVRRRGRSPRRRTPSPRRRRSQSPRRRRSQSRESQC", "assay": "Inhibition of Hepatitis B virus capsid formation at 100 uM treated during cell-free wild type HBV Cp synthesis using wheat germ lysates and HBV Cp RNA by Native capsid assay based western blot analysis", "format": "subcellular", "note": "The source made the active and inactive calls. No rule for the calls is given here."}
{"smiles": "CC(=O)N[C@@H](C)C(=O)N[C@@H](CO)C(=O)N[C@H](C(=O)N[C@@H](CCC(=O)O)C(=O)N[C@@H](CC(C)C)C(=O)N[C@@H](CC(C)C)C(=O)N[C@@H](CO)C(=O)N[C@@H](Cc1ccccc1)C(=O)N[C@@H](CC(C)C)C(=O)N1CCC[C@H]1C(=O)N[C@@H](CO)C(=O)N[C@@H](CC(=O)O)C(=O)N[C@@H](Cc1ccccc1)C(=O)N[C@@H](Cc1ccccc1)C(=O)N1CCC[C@H]1C(N)=O)C(C)C", "values": [{"measurement": "inhibition", "value": "inactive"}]}
{"smiles": "CC(=O)N[C@@H](Cc1ccc(O)cc1)C(=O)N[C@@H](CCCCN)C(=O)N[C@@H](CCC(=O)O)C(=O)N[C@@H](Cc1ccccc1)C(=O)NCC(=O)N[C@@H](C)C(=O)N[C@@H](CO)C(=O)N[C@H](C(=O)N[C@@H](CCC(=O)O)C(=O)N[C@@H](CC(C)C)C(=O)N[C@@H](CC(C)C)C(=O)N[C@@H](CO)C(=O)N[C@@H](Cc1ccccc1)C(=O)N[C@@H](CC(C)C)C(=O)N1CCC[C@H]1C(N)=O)C(C)C", "values": [{"measurement": "inhibition", "value": "inactive"}]}
{"smiles": "CC(C)C[C@H](NC(=O)[C@@H](NC(=O)[C@@H](N)CO)[C@@H](C)O)C(=O)N1CCC[C@H]1C(=O)N[C@@H](CCC(=O)O)C(=O)N[C@H](C(=O)N[C@H](C(=O)N[C@H](C(=O)N[C@H](C(=O)N[C@@H](CCCNC(=N)N)C(=O)N[C@@H](CCCNC(=N)N)C(=O)N[C@@H](CCCNC(=N)N)C(=O)NCC(=O)N[C@@H](CCCNC(=N)N)C(=O)N[C@@H](CO)C(N)=O)C(C)C)C(C)C)[C@@H](C)O)[C@@H](C)O", "values": [{"measurement": "inhibition", "value": "inactive"}]}
{"smiles": "CC(C)C[C@H](NC(=O)[C@H](CC(C)C)NC(=O)[C@H](CCC(=O)O)NC(=O)[C@@H](NC(=O)[C@H](CO)NC(=O)[C@H](C)N)C(C)C)C(=O)N[C@@H](CO)C(=O)N[C@@H](Cc1ccccc1)C(=O)N[C@@H](CC(C)C)C(=O)N1CCC[C@H]1C(=O)N[C@@H](CO)C(=O)N[C@@H](CC(=O)O)C(=O)N[C@@H](Cc1ccccc1)C(=O)N[C@@H](Cc1ccccc1)C(=O)N1CCC[C@H]1C(N)=O", "values": [{"measurement": "inhibition", "value": "inactive"}]}
{"smiles": "CC(C)C[C@H](NC(=O)[C@H](CC(C)C)NC(=O)[C@H](CCC(=O)O)NC(=O)[C@@H](NC(=O)[C@H](CO)NC(=O)[C@H](C)NC(=O)CNC(=O)[C@H](Cc1ccccc1)NC(=O)[C@H](CCC(=O)O)NC(=O)[C@H](CCCCN)NC(=O)[C@@H](N)Cc1ccc(O)cc1)C(C)C)C(=O)N[C@@H](CO)C(=O)N[C@@H](Cc1ccccc1)C(=O)N[C@@H](CC(C)C)C(=O)N1CCC[C@H]1C(N)=O", "values": [{"measurement": "inhibition", "value": "inactive"}]}
{"smiles": "CC(C)C[C@H](NC(=O)[C@H](CC(N)=O)NC(=O)[C@H](CO)NC(=O)CNC(=O)[C@@H](NC(=O)[C@@H](N)Cc1c[nH]c2ccccc12)C(C)C)C(=O)N[C@@H](CCC(=O)O)C(=O)N[C@@H](CC(=O)O)C(=O)N1CCC[C@H]1C(=O)N[C@@H](C)C(=O)N[C@@H](CO)C(=O)N[C@@H](CCCNC(=N)N)C(=O)N[C@@H](CCC(=O)O)C(=O)N[C@@H](CC(C)C)C(=O)N[C@H](C(N)=O)C(C)C", "values": [{"measurement": "inhibition", "value": "inactive"}]}
{"smiles": "CC(C)C[C@H](NC(=O)[C@H](CCC(=O)O)NC(=O)[C@H](CCCNC(=N)N)NC(=O)[C@H](CO)NC(=O)[C@H](C)NC(=O)[C@@H]1CCCN1C(=O)[C@H](CC(=O)O)NC(=O)[C@H](CCC(=O)O)NC(=O)[C@@H](N)CC(C)C)C(=O)N[C@H](C(=O)N[C@H](C(=O)N[C@@H](CO)C(=O)N[C@@H](Cc1ccc(O)cc1)C(=O)N[C@H](C(=O)N[C@@H](CC(N)=O)C(N)=O)C(C)C)C(C)C)C(C)C", "values": [{"measurement": "inhibition", "value": "inactive"}]}
{"smiles": "CC[C@H](C)[C@H](NC(=O)[C@@H](N)CO)C(=O)N[C@@H](CCCNC(=N)N)C(=O)N[C@@H](CC(=O)O)C(=O)N[C@@H](CC(C)C)C(=O)N[C@@H](CC(C)C)C(=O)N[C@@H](CC(=O)O)C(=O)N[C@H](C(=O)N[C@@H](C)C(=O)N[C@@H](CO)C(=O)N[C@@H](C)C(=O)N[C@@H](CC(C)C)C(=O)N[C@@H](Cc1ccc(O)cc1)C(=O)N[C@@H](CCCNC(=N)N)C(=O)N[C@@H](CCC(=O)O)C(N)=O)[C@@H](C)O", "values": [{"measurement": "inhibition", "value": "inactive"}]}
{"smiles": "CC[C@H](C)[C@H](NC(=O)[C@@H]1CCCN1C(=O)[C@H](C)NC(=O)[C@@H](N)CC(N)=O)C(=O)N[C@@H](CC(C)C)C(=O)N[C@@H](CO)C(=O)N[C@H](C(=O)N[C@@H](CC(C)C)C(=O)N1CCC[C@H]1C(=O)N[C@@H](CCC(=O)O)C(=O)N[C@H](C(=O)N[C@H](C(=O)N[C@H](C(=O)N[C@H](C(=O)N[C@@H](CCCNC(=N)N)C(N)=O)C(C)C)C(C)C)[C@@H](C)O)[C@@H](C)O)[C@@H](C)O", "values": [{"measurement": "inhibition", "value": "inactive"}]}
{"smiles": "CC[C@H](C)[C@H](NC(=O)[C@H](C)NC(=O)[C@H](CCC(N)=O)NC(=O)[C@@H]1CCCN1)C(=O)N[C@@H](CC(C)C)C(=O)N[C@@H](CS)C(=O)N[C@@H](Cc1c[nH]c2ccccc12)C(=O)NCC(=O)N[C@@H](CCC(=O)O)C(=O)N[C@@H](CC(C)C)C(=O)N[C@@H](CCSC)C(=O)N[C@@H](CC(N)=O)C(=O)N[C@@H](CC(C)C)C(=O)N[C@@H](C)C(=O)N[C@H](C(N)=O)[C@@H](C)O", "values": [{"measurement": "inhibition", "value": "inactive"}]}
{"smiles": "CC[C@H](C)[C@H](NC(=O)[C@H](CC(=O)O)NC(=O)[C@@H](N)CCSC)C(=O)N[C@@H](CC(=O)O)C(=O)N1CCC[C@H]1C(=O)N[C@@H](Cc1ccc(O)cc1)C(=O)N[C@@H](CCCCN)C(=O)N[C@@H](CCC(=O)O)C(=O)N[C@@H](Cc1ccccc1)C(=O)NCC(=O)N[C@@H](C)C(=O)N[C@@H](CO)C(=O)N[C@H](C(=O)N[C@@H](CCC(=O)O)C(=O)N[C@@H](CC(C)C)C(N)=O)C(C)C", "values": [{"measurement": "inhibition", "value": "inactive"}]}
{"smiles": "CC[C@H](C)[C@H](NC(=O)[C@H](CC(=O)O)NC(=O)[C@H](CCSC)NC(C)=O)C(=O)N[C@@H](CC(=O)O)C(=O)N1CCC[C@H]1C(=O)N[C@@H](Cc1ccc(O)cc1)C(=O)N[C@@H](CCCCN)C(=O)N[C@@H](CCC(=O)O)C(=O)N[C@@H](Cc1ccccc1)C(=O)NCC(=O)N[C@@H](C)C(=O)N[C@@H](CO)C(=O)N[C@H](C(=O)N[C@@H](CCC(=O)O)C(=O)N[C@@H](CC(C)C)C(N)=O)C(C)C", "values": [{"measurement": "inhibition", "value": "inactive"}]}
{"smiles": "CC[C@H](C)[C@H](NC(=O)[C@H](CO)NC(=O)[C@@H]1CCCN1C(=O)[C@H](Cc1ccccc1)NC(=O)[C@H](Cc1ccccc1)NC(=O)[C@H](CC(=O)O)NC(=O)[C@@H](N)CO)C(=O)N[C@@H](CCCNC(=N)N)C(=O)N[C@@H](CC(=O)O)C(=O)N[C@@H](CC(C)C)C(=O)N[C@@H](CC(C)C)C(=O)N[C@@H](CC(=O)O)C(=O)N[C@H](C(=O)N[C@@H](C)C(=O)N[C@@H](CO)C(N)=O)[C@@H](C)O", "values": [{"measurement": "inhibition", "value": "inactive"}]}
{"smiles": "CC[C@H](C)[C@H](NC(=O)[C@H](CO)NC(=O)[C@@H]1CCCN1C(=O)[C@H](Cc1ccccc1)NC(=O)[C@H](Cc1ccccc1)NC(=O)[C@H](CC(=O)O)NC(=O)[C@H](CO)NC(=O)[C@@H]1CCCN1C(=O)[C@H](CC(C)C)NC(=O)[C@H](Cc1ccccc1)NC(=O)[C@H](CO)NC(=O)[C@@H](N)CC(C)C)C(=O)N[C@@H](CCCNC(=N)N)C(=O)N[C@@H](CC(=O)O)C(=O)N[C@@H](CC(C)C)C(N)=O", "values": [{"measurement": "inhibition", "value": "inactive"}]}
{"smiles": "CC[C@H](C)[C@H](NC(=O)[C@H](CO)NC(=O)[C@@H]1CCCN1C(=O)[C@H](Cc1ccccc1)NC(=O)[C@H](Cc1ccccc1)NC(=O)[C@H](CC(=O)O)NC(=O)[C@H](CO)NC(=O)[C@@H]1CCCN1C(=O)[C@H](CC(C)C)NC(=O)[C@H](Cc1ccccc1)NC(=O)[C@H](CO)NC(=O)[C@H](CC(C)C)NC(C)=O)C(=O)N[C@@H](CCCNC(=N)N)C(=O)N[C@@H](CC(=O)O)C(=O)N[C@@H](CC(C)C)C(N)=O", "values": [{"measurement": "inhibition", "value": "inactive"}]}
{"smiles": "CC[C@H](C)[C@H](NC(=O)[C@H](CO)NC(=O)[C@@H]1CCCN1C(=O)[C@H](Cc1ccccc1)NC(=O)[C@H](Cc1ccccc1)NC(=O)[C@H](CC(=O)O)NC(=O)[C@H](CO)NC(C)=O)C(=O)N[C@@H](CCCNC(=N)N)C(=O)N[C@@H](CC(=O)O)C(=O)N[C@@H](CC(C)C)C(=O)N[C@@H](CC(C)C)C(=O)N[C@@H](CC(=O)O)C(=O)N[C@H](C(=O)N[C@@H](C)C(=O)N[C@@H](CO)C(N)=O)[C@@H](C)O", "values": [{"measurement": "inhibition", "value": "inactive"}]}
{"smiles": "CC[C@H](C)[C@H](NC(=O)[C@H](Cc1c[nH]c2ccccc12)NC(=O)[C@@H](NC(=O)CNC(=O)[C@H](Cc1ccccc1)NC(=O)[C@@H](N)CO)C(C)C)C(=O)N[C@@H](CCCNC(=N)N)C(=O)N[C@H](C(=O)N1CCC[C@H]1C(=O)N1CCC[C@H]1C(=O)N[C@@H](C)C(=O)N[C@@H](Cc1ccc(O)cc1)C(=O)N[C@@H](CCCNC(=N)N)C(=O)N1CCC[C@H]1C(=O)N1CCC[C@H]1C(N)=O)[C@@H](C)O", "values": [{"measurement": "inhibition", "value": "inactive"}]}
{"smiles": "CC[C@H](C)[C@H](NC(=O)[C@H](Cc1c[nH]cn1)NC(=O)[C@H](Cc1ccccc1)NC(=O)[C@H](Cc1c[nH]c2ccccc12)NC(=O)[C@H](CC(C)C)NC(=O)[C@H](CC(C)C)NC(=O)[C@H](CCC(N)=O)NC(=O)[C@H](CCCNC(=N)N)NC(=O)[C@H](Cc1ccccc1)NC(=O)[C@H](CCCCN)NC(=O)[C@H](CC(C)C)NC(=O)CNC(=O)[C@H](CCSC)NC(=O)[C@H](CC(N)=O)NC(=O)[C@@H](N)C(C)C)C(N)=O", "values": [{"measurement": "inhibition", "value": "inactive"}]}
{"smiles": "CSCC[C@H](N)C(=O)N[C@@H](CC(N)=O)C(=O)N[C@@H](CC(C)C)C(=O)N[C@@H](C)C(=O)N[C@H](C(=O)N[C@@H](Cc1c[nH]c2ccccc12)C(=O)N[C@H](C(=O)NCC(=O)N[C@@H](CO)C(=O)N[C@@H](CC(N)=O)C(=O)N[C@@H](CC(C)C)C(=O)N[C@@H](CCC(=O)O)C(=O)N[C@@H](CC(=O)O)C(=O)N1CCC[C@H]1C(=O)N[C@@H](C)C(N)=O)C(C)C)[C@@H](C)O", "values": [{"measurement": "inhibition", "value": "inactive"}]}
{"smiles": "CSCC[C@H](NC(=O)[C@H](CC(C)C)NC(=O)[C@H](CCC(=O)O)NC(=O)CNC(=O)[C@H](Cc1c[nH]c2ccccc12)NC(=O)[C@@H](N)CS)C(=O)N[C@@H](CC(N)=O)C(=O)N[C@@H](CC(C)C)C(=O)N[C@@H](C)C(=O)N[C@H](C(=O)N[C@@H](Cc1c[nH]c2ccccc12)C(=O)N[C@H](C(=O)NCC(=O)N[C@@H](CO)C(=O)N[C@@H](CC(N)=O)C(N)=O)C(C)C)[C@@H](C)O", "values": [{"measurement": "inhibition", "value": "inactive"}]}
{"smiles": "CSCC[C@H](NC(=O)[C@H](CC(N)=O)NC(=O)[C@@H](NC(=O)[C@H](CC(N)=O)NC(=O)[C@@H](NC(=O)[C@H](Cc1ccc(O)cc1)NC(=O)[C@H](CO)NC(=O)[C@@H](NC(=O)[C@@H](NC(=O)[C@H](CC(C)C)NC(=O)[C@H](CCC(=O)O)NC(=O)[C@H](CCCNC(=N)N)NC(=O)[C@@H](N)CO)C(C)C)C(C)C)C(C)C)C(C)C)C(=O)NCC(=O)N[C@@H](CC(C)C)C(N)=O", "values": [{"measurement": "inhibition", "value": "inactive"}]}
